{"source": "patent US10836768B2", "about": "“N-acyl-(3-substituted)-(8-substituted)-5,6-dihydro-[1,2,4]triazolo[4,3-a]pyrazines as selective NK-3 receptor antagonists” (OGEDA SA, priority 2013, dated 2020)", "key": {"[1]": {"test": "Determination of plasma protein binding (equilibrium dialysis)", "type": "in vitro ADME", "details": "bound drug fraction to plasma protein; 4 hours at 37° C.", "from_the_text": "Determination of Plasma Protein Binding\nThe pharmacokinetic and pharmacodynamic properties of chemicals/drugs are largely a function of the reversible binding of chemicals to plasma or serum proteins. […] Consequently, the extent of the plasma protein binding (PPB) of a compound influences its action as well as its distribution and elimination.\nThe determination of plasma protein binding (PPB) of a compound is enabled by equilibrium dialysis, an accepted and standard method for reliable estimation of the non-bound drug fraction in plasma. RED (Rapid Equilibrium Dialysis) device insert is made of two side-by-side chambers separated by an O-ring-sealed vertical cylinder of dialysis membrane (MWCO ˜8,000). […] After 4 hours incubation at 37° C. under shaking, an aliquot is removed from each chamber and analyzed by a LC-MS/MS procedure enables the determination of both free and bound drug.\nThe “free fraction” may be calculated as 100%−% rPPB (i.e. the complementary percentage of that disclosed in Table 4, corresponding to the drug concentration that is unbound and therefore available to engage biological target and elicit pharmacological activity)."}, "[2]": {"tested_on": "circulating levels of luteinizing hormone (LH)", "test": "Castrated male rat model, circulating LH (oral dosing)", "type": "in vivo", "details": "castrated male SD rats, single oral dose less than or equal to 30 mg/kg, p<0.05", "procedure": "In vivo assay to assess compound activity in rat (oral dosing)\nCastrated male rat model to assess the effect of compound of invention on circulating levels of luteinizing hormone (LH)\nThe effect of compounds of the invention to inhibit luteinizing hormone (LH) secretion is determined by the following biological studies.\nIn humans and rodents, castration is well-precedented to permit heightened, persistent GnRH signaling and consequent elevation of circulating LH. Thus, a castrated rat model is used to provide a broad index for measurement of LH inhibition as a marker of test compound inhibition of the GnRH signaling pathway.\nCastrated adult male Sprague-Dawley (SD) rats (150-175 g,) were purchased from Janvier (St Berthevin, France). All animals were housed 2 per cage in a temperature-controlled room (22±2° C.) and 50±5% relative humidity with a 12 hour/12 hour light/dark cycles (lights off at […]). The animals were allowed 3 weeks of postoperative recovery prior to study. Animals were handled on a daily basis. Standard diet and tap water were provided ad libitum. Animal cage litters were changed once a week. On the study day, animals were acclimated to the procedure room for a period of one hour prior to the initiation of the experiment.\nCompounds of the invention were formulated in 0.5% methyl cellulose.\nAfter basal sampling (TO) a single dose of compounds of the invention or vehicle was administrated orally to rats. Blood samples were then collected at several time points post dosing (45, 90, 150, 300 and 420 minutes). Blood samples were obtained via tail vein bleed, drawn into EDTA-containing tubes and centrifuged immediately. Plasma samples were collected and stored in a −80° C. freezer until assayed. Serum LH levels were determined using radioimmunoassay kit from RIAZEN—Rat LH, Zentech (Liege, Belgium). Baseline was defined as the initial basal blood sample."}, "[3]": {"tested_on": "plasma estradiol levels", "test": "Estradiol circulating level in female rats", "type": "in vivo, rat", "details": "adult female rats, 10 mg/kg b.i.d. oral, two consecutive estrous cycles (FIG. 3)", "procedure": "Effect of compounds of the invention on Estradiol circulating level in female rats The aim of this study was to evaluate the effect of compounds of the invention on plasma estradiol levels following oral administration at 10 mg/kg (b.i.d.) for a period of 10 days in female rats.\nBriefly the experimental methods used for this study were as follows: Two groups of adult, female rats (Sprague-Dawley, −320 g) were treated in-phase with their individual estrous cycles. Thus, treatment was started in the proestrus phase (coincident with peak estradiol levels, as shown on Day 1 in FIG. 3) and rats were dosed twice daily (˜9 h30 and 17 h30) by oral administration either with a compound of the invention at 10 mg/kg or with the vehicle for the control group. Compounds of the invention were prepared in a dose formulation of pyrogen-free water with 0.5% methylcellulose. Estradiol levels were determined for all groups by ELISA performed on plasma samples derived from blood collections taken at 30 minutes before the daily, 9 h30 test article administration on all days presented in FIG. 3."}, "[4]": {"tested_on": "ovariectomized ewes", "test": "In vivo assay in OVX ewes, thermoregulation", "set-up": "species or system ewe", "details": "1 mg/kg i.v.", "from_the_text": "In Vivo Assay in OVX Ewes-Activity in Thermoregulation Experimental Methods: Evaluation of Thermoregulation in OVX Ewe […] After 4 months recovery, animals were acclimatised to housing in single pens for a period of 7 days with ad libitum access to water and […] lucerne hay. One day prior to experimentation, the animals received a jugular vein cannula ([…], Tuta Laboratories, Lane Cove, Australia). The cannulo were kept patent with heparinised saline. […] Animals were fed at 12 h00. Rectal temperatures were monitored with a probe at hourly intervals throughout the experiment, starting at 7 h40 and concluding at 15 h40."}, "[5]": {"tested_on": "postmenopausal women", "test": "Phase 2a clinical trial, menopausal hot flashes", "type": "in vivo, human", "details": "90 mg BID", "procedure": "Clinical Evaluation of Compound No 5 for the Treatment of Menopausal Hot Flashes The study objective is to evaluate the effect of compound no 5 on the severity and frequency of hot flashes in postmenopausal women. The Phase 2a clinical trial was conducted in 80 patients, divided over 2 treatment groups of 40 patients each. […] The Phase 2a trial was double blind and randomized. This Phase 2a trial was conducted on healthy menopausal women (40-65 y) experiencing at least 49 moderate or severe hot flashes or night sweats over a period of 7 consecutive days in the screening period (maximum of 4 weeks). […] The weekly number of hot flashes was calculated in two ways: cumulatively for all severity grades, and cumulatively but leaving out the number of mild hot flashes. Hot Flash Frequencies were calculated for weeks 4 and 12. […] This score is an accepted method to assess the overall severity of the hot flash burden and is calculated weekly. […] The Hot Flash Score (based on severity and frequency) is calculated as follows: day-score=(number of mild hot flashes/day×1)+(number of moderate hot flashes/day×2)+(number of severe hot flashes/day×3) • The weekly hot flash score is calculated: […] […]"}, "[6]": {"tested_on": "women diagnosed with PCOS", "test": "Phase 2a clinical trial, PolyCystic Ovary Syndrome (PCOS)", "type": "in vivo, human", "details": "180 mg QD", "procedure": "Clinical Evaluation of Compound No 5 for the Treatment of PolyCystic Ovary Syndrome (PCOS)\nThe study objectives are to evaluate the effect of compound no 5 on the serum levels of Total Testosterone (TT), Luteinizing Hormone (LH), Follicle Stimulating Hormone (FSH) and LH:FSH ratio after 12 weeks of treatment.\nThe Phase 2a clinical trial was conducted in 48 patients, divided over 2 treatment groups of 24 patients each. One group received placebo while the other group received 180 mg of compound no 5 once daily (QD) for a period of 12 weeks. The Phase 2a trial was double blind and randomized. […] The study was conducted on an ambulatory basis where patients were asked to visit the clinical site on the first day of dosing and at weeks 3, 6, 9 and 12 during the treatment period with a follow-up visit 2-3 weeks after conclusion of dosing.\nBlood draws for LH, FSH and TT were taken every visit between 2 and 8 hours after drug intake (baseline and week 3-6-12). At week 9 the blood samples were taken in the morning before drug intake (i.e. at trough PK concentrations for compound no 5). These blood draws were the basis for assessing the primary (TT) and secondary (LH, FSH, LH:FSH ratio) endpoints. The primary endpoint of Total Testosterone was measured according to GLP using an LC-MS/MS method.\nPCOS is typically characterized by excessive ovarian androgen production, failure of ovulation, and slightly enlarged ovaries with numerous peripheral small follicles that appear as cysts. The disorder is commonly accompanied by infertility. Typically, the clinical features of PCOS are associated with hypersecretion of LH and androgens (TT) but with normal serum concentrations of FSH hormone. Laboratory examinations reveal elevated TT levels in about 50% of the patients, accompanied by an elevated LH:FSH ratio (>2) due to the imbalanced secretion of both hormones (a ratio of 1 is considered normal)."}}}
{"smiles": "Cc1nsc(-c2nnc3n2CCN(C(=O)c2ccc(F)cc2)[C@@H]3C)n1", "note": "[Compound 5, (R)-(4-fluorophenyl)(8-methyl-3-(3-methyl-1,2,4-thiadiazol-5-yl)-5,6-dihydro-[1,2,4]triazolo[4,3-a]pyrazin-7(8H)-yl)methanone]", "values": [{"measurement": "Exposure (% rPPB)", "setting": "[1]", "value": 22, "unit": "%"}, {"measurement": "circulating LH levels", "setting": "[2]", "value": "significantly suppressed circulating LH levels"}, {"measurement": "estradiol levels", "setting": "[3]", "value": "significantly decreased estradiol levels"}, {"measurement": "pyrogenic response to feeding", "setting": "[4]", "value": "not observed"}, {"measurement": "Frequency of hot flashes vs placebo", "setting": "[5]", "value": "significantly reduced"}, {"measurement": "Score of hot flashes vs placebo", "setting": "[5]", "value": "significantly reduced"}, {"measurement": "FSH secretion", "setting": "[6]", "value": "preserved"}, {"measurement": "LH", "setting": "[6]", "value": "significant decrease"}, {"measurement": "LH:FSH vs placebo", "setting": "[6]", "value": "significantly reduced"}, {"measurement": "TT vs placebo", "setting": "[6]", "value": "significantly reduced"}]}
